Values quoted from earlier work as cited in US10232018B2, “ACTH for treatment of acute respiratory distress syndrome” (MALLINCKRODT ARD IP LIMITED, priority 2013, dated 2019).

What was measured:
[1] = Baumann and Felber, 1976

Substance | duration of action compared with 1-24 [1] | partial agonist activity in adrenal stimulation assays in comparison to ACTH1-24 as control (adrenal stimulation)
human 1-39: human ACTH 1-39 (SYSMEHFRWGKPVGKKRRPVKVYPNGAEDESAEAFPLEF; Corticotropin; UniProt P01189 138-176, looked up) | longer duration of action | 
ACTH1-23: ACTH fragment 1-23, partial agonist in Hofmann et al. (1970) (SYSMEHFRWGKPVGKKRRPVKVY; Corticotropin; UniProt P01189 138-160, looked up, fragment) |  | 91%
